Here are results for eleven compounds from ChEMBL document CHEMBL5338785, “Development of Aromatic-Linked Diamino Acid Antimicrobial Peptide Mimics with Low Hemolytic Toxicity and Excellent Activity against Methicillin-Resistant Staphylococcus aureus (MRSA)” (J Med Chem, 2023).

Series [1] is described as follows: Selectivity index, ratio of HC50 for hemolytic activity in sheep RBC to MIC for antibacterial activity against methicillin-resistant Staphylococcus aureus assessed as bacterial growth inhibition. Format: toxicity. Conditions: sheep red blood cells.
Series [2] relates to Enterococcus faecalis. In words: Antibacterial activity against Enterococcus faecalis assessed as bacterial growth inhibition incubated for 18 hrs by CLSI protocol based Mueller-Hinton broth assay. Conditions: Enterococcus faecalis, 18 h, read-out: MIC. It counts as functional.
Series [3] relates to Stenotrophomonas maltophilia. In words: Antibacterial activity against Stenotrophomonas maltophilia assessed as bacterial growth inhibition incubated for 18 hrs by CLSI protocol based Mueller-Hinton broth assay. Conditions: Stenotrophomonas maltophilia, read-out: MIC. Format: functional.
Series [4] concerns Staphylococcus aureus. In words: Antibacterial activity against methicillin-resistant Staphylococcus aureus assessed as bacterial growth inhibition incubated for 18 hrs by CLSI protocol based Mueller-Hinton broth assay. Conditions: Staphylococcus aureus, read-out: MIC. It counts as functional.
For series [5], the system named is Escherichia coli. The experiment in a line: Antibacterial activity against Escherichia coli assessed as bacterial growth inhibition incubated for 18 hrs by CLSI protocol based Mueller-Hinton broth assay. Format: functional. Conditions: Escherichia coli, read-out: MIC.
Series [6] in a line: Hemolytic activity in sheep RBC assessed as hemolysis incubated for 1 hr by microplate reader method. Format: toxicity, cell-based, Ovis aries, Erythrocyte. The note with it: sheep red blood cells.

Values after ≈ are worked out from the molar mass of the structure shown. Bounds are passed on as bounds.

In general, MIC refers to the least concentration at which growth counts as inhibited. Broadly, the HC50 is the concentration that lyses half of the red blood cells. With `CCCCCCCN(CCOc1ccc(OCCN(CCCCCCC)C(=O)[C@H](C)N)cc1)C(=O)[C@H](C)N.Cl.Cl`, the selectivity ratio in series [1] amounted to 76. Besides, the MIC in series [2] was found to be 2 µg/mL; in series [3], 2 µg/mL; in series [4], 1 µg/mL; in series [5] (18 h), 2 µg/mL. Besides, in series [6], the HC50 at 1 h amounted to 76 µg/mL.

With `C[C@@H](O)[C@H]1C(=O)N2C(C(=O)O)=C(S[C@@H]3CN[C@H](C(=O)N(C)C)C3)[C@H](C)[C@H]12` [MEROPENEM], the MIC in series [5] came out at 0.062 µg/mL (≈ 0.162 µM).

On to `CCCCCCCCCN(CCOc1ccc(OCCN(CCCCCCCCC)C(=O)[C@@H](N)CCCCN)cc1)C(=O)[C@@H](N)CCCCN.Cl.Cl.Cl.Cl`, for which, in series [1], the selectivity ratio worked out at 10.5. Besides, the MIC in series [2] was 1 µg/mL; in series [3], 2 µg/mL; in series [4], 2 µg/mL; in series [5] (18 h) it was 2 µg/mL. Further, the HC50 at 1 h in series [6] was found to be 21 µg/mL.

In the case of `CCCCCCCCN(CCCOc1cccc(-c2cccc(OCCCN(CCCCCCCC)C(=O)[C@@H](N)CCCCN)c2)c1)C(=O)[C@@H](N)CCCCN.Cl.Cl.Cl.Cl`, the selectivity ratio in series [1] was 7.5. Further, the MIC in series [2] is 1 µg/mL; in series [3], 2 µg/mL; in series [4], 2 µg/mL; in series [5] (18 h) it was 2 µg/mL. For the same compound, the HC50 at 1 h in series [6] amounted to 15 µg/mL.

On to `CCCCCCCN(CCCOc1ccccc1)C(=O)[C@@H](N)CCCCN.Cl.Cl`, for which the selectivity ratio in series [1] turned out to be 24.2. Also, the MIC in series [2] stood at 16 µg/mL; in series [3], 64 µg/mL; in series [4] it was 32 µg/mL; in series [5] (18 h), 128 µg/mL. For the same compound, the HC50 at 1 h in series [6] was found to be 773 µg/mL.

In the case of `CCCCCCN(CCOc1ccc(OCCN(CCCCCC)C(=O)[C@@H](N)CCCCN)cc1)C(=O)[C@@H](N)CCCCN.Cl.Cl.Cl.Cl`, the selectivity ratio in series [1] is > 250. The MIC was determined as 8 µg/mL in series [2], 64 µg/mL in series [3], 4 µg/mL in series [4] and 64 µg/mL in series [5] (18 h). In series [6], the concentration for 50% haemolysis (HC50) at 1 h is > 1000 µg/mL.

As for `CCCCCCCCCN(CCCOc1ccc(OCCCN(CCCCCCCCC)C(=O)[C@@H](N)CCCCN)cc1)C(=O)[C@@H](N)CCCCN.Cl.Cl.Cl.Cl`, the selectivity ratio in series [1] worked out at 10.5. Further, the MIC in series [2] stood at 1 µg/mL; in series [3] it was 1 µg/mL; in series [4] it was 2 µg/mL; in series [5] (18 h), 2 µg/mL. For the same compound, the HC50 at 1 h in series [6] was determined as 11 µg/mL.

On to `CCCCCCCCN(CCOc1ccc(OCCN(CCCCCCCC)C(=O)[C@@H](N)CCCCN)cc1)C(=O)[C@@H](N)CCCCN.Cl.Cl.Cl.Cl`, for which the selectivity ratio in series [1] turned out to be 93. The MIC stood at 0.5 µg/mL in series [2], 1 µg/mL in series [3], 1 µg/mL in series [4] and 2 µg/mL in series [5] (18 h). In addition, the HC50 at 1 h in series [6] amounted to 93 µg/mL.

For `CCCCCCCN(CCOc1ccc(OCCN(CCCCCCC)C(=O)[C@@H](N)Cc2ccccc2)cc1)C(=O)[C@@H](N)Cc1ccccc1.Cl.Cl`, in series [1], the selectivity ratio is 72.5. Further, the MIC in series [2] is 1 µg/mL; in series [3], > 128 µg/mL; in series [4], 2 µg/mL; in series [5] (18 h) it was > 128 µg/mL. Also, the HC50 at 1 h in series [6] stood at 145 µg/mL.

As for `CCCCCCN(CCCOc1ccc2ccccc2c1-c1c(OCCCN(CCCCCC)C(=O)[C@@H](N)CCCCN)ccc2ccccc12)C(=O)[C@@H](N)CCCCN.Cl.Cl.Cl.Cl` (stereo in doubt; 8m), the selectivity ratio in series [1] was found to be 61. The MIC in series [2] stood at 1 µg/mL; in series [3], 1 µg/mL; in series [4], 1 µg/mL; in series [5] (18 h), 2 µg/mL. Further, in series [6], the HC50 at 1 h was 61 µg/mL.

Turning to `CCCCCCN(CCCOc1ccccc1)C(=O)[C@@H](N)CCCCN.Cl.Cl`, the selectivity ratio in series [1] is > 15.6. Moreover, the minimal inhibitory concentration (MIC) in series [2] was found to be 64 µg/mL; in series [3], 128 µg/mL; in series [4] it was 64 µg/mL; in series [5] (18 h) it was 128 µg/mL. Moreover, the HC50 at 1 h in series [6] was > 1000 µg/mL.
